From ChEMBL document CHEMBL2016440, “Overcoming fluconazole resistance in Candida albicans clinical isolates with tetracyclic indoles” (Bioorg Med Chem Lett, 2012)
Active and inactive are the calls of the source. No cut-off for these calls is given here.

Legend:
Candida albicans [1] = assay: Antifungal activity against fluconazole-resistant Candida albicans isolate 2 assessed as growth inhibition after 48 hrs by alamar blue fluorescence assay in presence of 8 ug/ml fluconazole; type: functional, organism-based; conditions: isolate 2, 48 h
Candida albicans [2] = assay: Antifungal activity against fluconazole-resistant Candida albicans isolate 8 assessed as growth inhibition after 48 hrs by alamar blue fluorescence assay in presence of 8 ug/ml fluconazole; type: functional, organism-based; conditions: isolate 8, 48 h
Candida albicans [3] = assay: Antifungal activity against fluconazole-sensitive Candida albicans SC5314 assessed as growth inhibition at 8 ug/ml after 24 hrs by alamar blue fluorescence assay; type: functional, organism-based
Candida albicans [4] = assay: Antifungal activity against fluconazole-sensitive Candida albicans SC5314 assessed as growth inhibition at 1 ug/ml after 24 hrs by alamar blue fluorescence assay; type: functional, organism-based
NIH3T3 [5] = assay: Cytotoxicity against mouse 3T3 cells at 0.2 to 26 uM; type: cell-based; conditions: nih3t3, 26 µM
NIH3T3 [6] = assay: Cytotoxicity against mouse 3T3 cells; type: cell-based
Candida albicans [7] = assay: Antifungal activity against fluconazole-sensitive Candida albicans SC5314 assessed as growth inhibition at 7.5 ug/ml after 24 hrs by alamar blue fluorescence assay in presence of fluconazole; type: functional; conditions: SC5314, 24 h, read-out: GI
Candida albicans [8] = assay: Antifungal activity against fluconazole-sensitive Candida albicans SC5314 assessed as growth inhibition at 7.5 ug/ml after 24 hrs by alamar blue fluorescence assay; type: functional, organism-based
Candida albicans [9] = assay: Antifungal activity against Candida albicans assessed as growth inhibition after 48 hrs by alamar blue fluorescence assay; type: functional, organism-based

Compound | IC50 (Candida albicans [1]) [µM] | IC50 (Candida albicans [2]) [µM] | other results
COc1ccc2c(c1)c1nc3n(c(=O)c1n2CC(=O)N1CCC(Cc2ccccc2)CC1)CCS3 | > 26 | > 26 | 
O=C(O)Cn1c2ccc(F)cc2c2nc3n(c(=O)c21)CCS3 | > 26 | > 26 | 
CC1CCN(C(=O)Cn2c3ccc(F)cc3c3nc4n(c(=O)c32)CCCS4)CC1 | 2.7 | 11.7 | 
O=C(Cn1c2ccc(F)cc2c2nc3n(c(=O)c21)CCS3)N1CCC(F)(F)CC1 | 0.7 | > 26 | 
O=C(Cn1c2ccccc2c2nc3n(c(=O)c21)CCS3)NCCc1ccc(Cl)cc1 | > 10 | 23.4 | 
OC(Cn1cncn1)(Cn1cncn1)c1ccc(F)cc1F |  |  | growth inhibition (GI) (Candida albicans [3]): inactive
O=C(Cn1c2ccccc2c2ccncc21)N1CCCCC1 | > 26 | > 26 | 
Oc1c2nc3ccccc3c-2nc2n1CCS2 | > 10 | 15.7 | 
O=C(Cn1c2ccc(F)cc2c2nc3n(c(=O)c21)CCS3)N1CCCCC1 | 0.5 | > 26 | 
C[C@@H]1[C@H](O)[C@@H](C)/C=C/C=C/C=C/C=C/C=C/C=C/C=C/[C@H](O[C@@H]2O[C@H](C)[C@@H](O)[C@H](N)[C@@H]2O)C[C@@H]2O[C@](O)(C[C@@H](O)C[C@@H](O)[C@H](O)CC[C@@H](O)C[C@@H](O)CC(=O)O[C@H]1C)C[C@H](O)[C@H]2C(=O)O |  |  | growth inhibition (GI) (Candida albicans [4]): Active
CC1CCN(C(=O)Cn2c3ccccc3c3nc4n(c(=O)c32)CCCS4)CC1 | 12.1 | 21.3 | 
CC1CCN(C(=O)Cn2c3ccccc3c3nc4n(c(=O)c32)CCS4)CC1 | 3.2 | 5.5 | Activity (NIH3T3 [5]): Non-toxic; IC50 (NIH3T3 [6]): > 26 µM
O=C(Cn1c2ccccc2c2nc3n(c(=O)c21)CCS3)N1CCCCC1 | 1.9 | 2.9 | 
O=C(Cn1c2ccccc2c2nc3n(c(=O)c21)CCS3)N1CCC(F)(F)C1 | 5.9 | 10.2 | 
CN1CCN(C(=O)Cn2c3ccccc3c3nc4n(c(=O)c32)CCS4)CC1 | 7.1 | 22.5 | 
COC(=O)Cn1c2ccc(F)cc2c2nc3n(c(=O)c21)CCS3 | 3.5 | 6 | 
Oc1c2nc3ccc(F)cc3c-2nc2n1CCS2 | 3.8 | 7.1 | 

Compound | IC50 (Candida albicans [1]) [µM] | IC50 (Candida albicans [2]) [µM] | other results
COc1ccc2c(c1)c1nc3n(c(=O)c1n2CC(=O)N1CCC(C)CC1)CCS3 | > 26 | > 26 | 
COc1ccc(NC(=O)Cn2c3ccccc3c3nc4n(c(=O)c32)CCS4)cc1 | > 10 | > 26 | 
O=C(Cn1c2ccccc2c2nc3n(c(=O)c21)CCS3)N1CC=CC1 | 1.8 | 3.1 | 
O=C(Cn1c2ccc(F)cc2c2nc3n(c(=O)c21)CCS3)N1CCCCCC1 | 2.2 | > 26 | 
O=C(Cn1c2ccccc2c2nc3n(c(=O)c21)CCS3)N1CCOCC1 | 4.3 | 6.6 | 
COC(=O)Cn1c2ccccc2c2nc3n(c(=O)c21)CCS3 | 7.9 | 13.3 | 
CCN(CC)C(=O)Cn1c2ccc(F)cc2c2nc3n(c(=O)c21)CCS3 | 0.5 | > 26 | 
CC1CCN(CCn2c3ccccc3c3nc4n(c(=O)c32)CCS4)CC1 | > 10 | > 26 | 
O=C(O)Cn1c2ccccc2c2nc3n(c(=O)c21)CCS3 | > 10 | > 26 | 
O=C(Cn1c2ccc(F)cc2c2nc3n(c(=O)c21)CCS3)N1CCC(F)(F)C1 | 1.1 | 1.1 | 
O=C(Cn1c2ccccc2c2nc3n(c(=O)c21)CCS3)N1CCCC1 | 1.1 | 1.9 | inhibition of growth at 7.5 µg/mL (Candida albicans [7]): 96%; growth inhibition (GI) (Candida albicans [8]): inactive; IC50 (NIH3T3 [6]): > 26 µM; IC50 (Candida albicans [9]): > 26 µM
CC1(O)CN(C(=O)Cn2c3ccccc3c3nc4n(c(=O)c32)CCS4)C1 | > 10 | > 26 | 
O=C(Cn1c2ccccc2c2nc3n(c(=O)c21)CCS3)N1CCC(F)(F)CC1 | > 10 | > 26 | 
CCN(CC)C(=O)Cn1c2ccccc2c2nc3n(c(=O)c21)CCS3 | 2.3 | > 26 | 
O=C(Cn1c2ccc(F)cc2c2nc3n(c(=O)c21)CCS3)N1CCCC1 | 0.6 | 18.9 | 
O=C(Cn1c2ccc(F)cc2c2nc3n(c(=O)c21)CCS3)N1CC=CC1 | 0.5 | > 26 | 
